The text below walks through data of US20260374766A1, “METHODS FOR TREATING CANCER” (Antares Therapeutics, Inc., priority 2022, published 2026).

Structures are written as SMILES. pIC50, pKd: −log10 of the molar value. Like-named read-outs stand apart in the source and are kept apart here.

The target in assay [1] is T1, p53 Y220C mutant protein (amino acid residues 94-293) (Homo sapiens, UniProt P04637, Y220C).
T1 construct: p53 Y220C mutant protein (amino acid residues 94-293)
Nature of the assay: Surface Plasmon Resonance (SPR) assay, Kd_kinetic. The format is binding. Particulars: read-out: SPR P53 Y220C KD kinetic. The method, boiled down:
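Binding measured by SPR on a Biacore 8K in running buffer of 50 mM Tris pH 7.5, 100 mM NaCl, 1 mM DTT, 0.01% Brij35, 0.05% Tween-20, 1% DMSO.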

For assay [2], the target named is T1, p53 Y220C mutant protein (amino acid residues 94-293). Nature of the assay: Thermal Shift Assay (TSA), dTM. The format is binding. To be noted: for ΔTm at 10 µM: 10 uM compound; for ΔTm at 100 µM: 100 uM compound. A digest of the protocol: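 Recombinant p53 Y220C core (residues 94-293) at 5 μM was incubated with 10 μM or 100 μM compound for 3 hours at 20 °C in 20 mM HEPES pH7.4, 100 mM NaCl, 0.01% Pluronic F-127, 1% DMSO with 400-fold diluted Sypro Orange. Melting was followed from 30 °C to 50 °C at 0.03 °C/second, and TM came from a Boltzmann two-state fit.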

The target of assay [3] is p53 Y220C (Homo sapiens, UniProt P04637, Y220C). In words: Luciferase Reporter Assay (Luc), p53 response element, NClH1299 cells with inducible p53 Y220C. The format is cell-based. Particulars: luciferase reporter, NClH1299 inducible p53 Y220C, 6 hour; for AC50: read-out: Luc P53 Y220C AC50. The method, boiled down:
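Luminescence readout (One-Glo, 5 min shaking at RT, read at once) after 6 h compound exposure; cells pre-induced 24 h with 0.5 ug/mL doxycycline, 5,000/well.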
In general terms: Reporter assays use an easily measured gene product as a stand-in for the process of interest.

The test system of assay [4] is NUGC3 p53 Y220C. Nature of the assay: Cell Proliferation Assay (CellTiter-Glo, CTG), NUGC3 p53 Y220C. The format is cell-based. To be noted: Homo sapiens, NUGC-3, 120 h, CellTiter-Glo, 5 days. The method, boiled down:
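NClH1299 lines stably transduced with Tet-inducible p53 Y220C or R273H, plus NUGC3, were treated with compound for 5 days at 250-500 cells/well. IC50 derived from CellTiter-Glo luminescent signal after 10 min room-temperature incubation.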

In assay [5] the test system is H1299 p53 Y220C. In words: Cell Proliferation Assay (CellTiter-Glo, CTG), H1299 p53 Y220C (NClH1299-inducible p53 Y220C). The assay is classed as cell-based. Particulars: Homo sapiens, NCI-H1299, 120 h, CellTiter-Glo, 5 days. The method, boiled down: (§1)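 Cells seeded at 250-500 per well and exposed to compound for 5 days. Viability read by CellTiter-Glo luminescence after 10 min at room temperature; IC50 calculated. H1299 lines carry Tet-One inducible p53 mutant constructs introduced by lentiviral transduction.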
(ATP-based viability assays read luminescence as a measure of living cells.)

Assay [6] has as its system H1299 p53 R273H. Nature of the assay: Cell Proliferation Assay (CellTiter-Glo, CTG), H1299 p53 R273H (NClH1299-inducible p53 R273H). To be noted: Homo sapiens, NCI-H1299, 120 h, CellTiter-Glo, 5 days. The assay is classed as cell-based. The method, boiled down: as §1
Where [7] appears, read: thermal shift, read-out: TSA P53 Y220C dTM (10 uM).
Setting [8] is: thermal shift, read-out: TSA P53 Y220C dTM (100 uM).
The mark [9] stands for this setting: 10 uM tool compound as positive control.
Setting [10] is: p53 Y220C, read-out: TSA P53 Y220C dTM.
[11] abbreviates: NClH1299-inducible p53 Y220C cells.
[12] abbreviates: NClH1299-inducible p53 R273H cells.

Turning to `CNC(=O)c1ccc(OC)c(NCC#Cc2nc3c(N[C@@H]4CCNC[C@@H]4F)cccn3c2SC(F)(F)F)n1` [Example 217], the pKd in assay [1] is above 8.00. Moreover, the ΔTm at 10 µM in assay [2] (setting [7]) was at least 10 °C. The ΔTm at 100 µM in assay [2] (setting [8]) was at least 10 °C. In addition, in assay [3] (setting [9]), the Emax was in the range of 70 to 80%. For the same compound, in assay [3], the concentration at half-maximal activity (AC50) was below 750 nM. Besides, the pIC50 in assay [4] (NUGC3 p53 Y220C) was above 6.12; in assay [5] (H1299 p53 Y220C), above 6.12; in assay [6] (H1299 p53 R273H) it was 5.10 to 5.30.

Consider `CNC(=O)c1ccc(OC)c(NCC#Cc2nc3c(N[C@@H]4CCNC[C@@H]4F)cccn3c2SC(F)(F)F)c1` [Example 218], for which the pKd in assay [1] (SPR, kinetic KD, p53 Y220C) is above 8.00. The ΔTm at 10 µM in assay [2] (setting [7]) is at least 10 °C. Also, the ΔTm at 100 µM in assay [2] (setting [8]) was at least 10 °C. This compound yielded a maximum response (Emax) in assay [3] (setting [9]) of 80 to 90%. Further, the AC50 in assay [3] was below 750 nM. The pIC50 is above 6.12 in assay [4] (NUGC3 p53 Y220C), above 6.12 in assay [5] (H1299 p53 Y220C) and at most 5.00 in assay [6] (H1299 p53 R273H).

Regarding `CNC(=O)c1ccc(NCC#Cc2nn3c(N[C@@H]4CCN(C)C[C@@H]4F)cccc3c2SC(F)F)c(OC)c1` [Example 219, 4-[(3-{3-[(difluoromethyl)sulfanyl]-7-{[(3S,4R)-3-fluoro-1-methylpiperidin-4-yl]amino}pyrazolo[1,5-a]pyridin-2-yl}prop-2-yn-1-yl)amino]-3-methoxy-N-methylbenzamide], the negative logarithm of the Kd (pKd) in assay [1] (SPR, kinetic KD, p53 Y220C) was above 8.00. The ΔTm at 10 µM in assay [2] (setting [7]) was in the range of 5 to 10 °C. For the same compound, the ΔTm at 100 µM in assay [2] (setting [8]) was 5 to 10 °C. In assay [3] (setting [9]), this compound had an Emax of 80 to 90%. In assay [3], the half-maximal activity concentration (AC50) is below 750 nM. The values for the pIC50 in assay [4] (NUGC3 p53 Y220C), in assay [5] (H1299 p53 Y220C) and in assay [6] (H1299 p53 R273H) were above 6.12, above 6.12 and 5.10 to 5.30, respectively.

For the compound `CNC(=O)c1ccc(OC)c(NCC#Cc2nc3c(N[C@@H]4CCNC[C@@H]4F)cccn3c2CC(F)(F)F)c1` [Example 222], in assay [1] (SPR, kinetic KD, p53 Y220C), the negative-log Kd (pKd) was above 8.00. In assay [2] (setting [7]), the ΔTm at 10 µM was at least 10 °C. For the same compound, in assay [2] (setting [8]), the ΔTm at 100 µM is at least 10 °C. The same compound registered an Emax in assay [3] (setting [9]) below 70%. Also, the AC50 in assay [3] was above 3000 nM. Also, the values for the pIC50 in assay [4] (NUGC3 p53 Y220C), in assay [5] (H1299 p53 Y220C) and in assay [6] (H1299 p53 R273H) were above 6.12, 5.52 to 5.82 and at most 5.00, respectively.

For the compound `CNC(=O)c1ccc(NCC#Cc2nn3c(N[C@@H]4CCN(C)C[C@@H]4F)cccc3c2SC(F)(F)F)c(OC)c1` [Example 223, 4-{[3-(7-{[(3S,4R)-3-fluoro-1-methylpiperidin-4-yl]amino}-3-[(trifluoromethyl)sulfanyl]pyrazolo[1,5-a]pyridin-2-yl)prop-2-yn-1-yl]amino}-3-methoxy-N-methylbenzamide], the pKd in assay [1] (SPR, p53 Y220C) was above 8.00. In assay [2] (setting [10]), the ΔTm at 10 µM is at least 10 °C. In addition, the ΔTm at 100 µM in assay [2] (setting [10]) is at least 10 °C. Further, in assay [3] (AC50), the half-maximal activity concentration (AC50) is below 750 nM. In addition, in assay [3] (Emax), the maximal effect (Emax) was 80 to 90%. For the same compound, the pIC50 in assay [4] (NUGC3 cells) is above 6.12; in assay [5] (setting [11]), above 6.12; in assay [6] (setting [12]), at most 5.00.

As to `CNC(=O)c1ccc(NCC#Cc2nc3c(NC4COC4)cccn3c2SC(F)(F)F)c(OC)c1` [Example 225], the negative logarithm of the Kd (pKd) in assay [1] (SPR, p53 Y220C) was 7.00 to 8.00. In addition, in assay [2] (setting [10]), the ΔTm at 10 µM lay in the range of 1 to 5 °C. The ΔTm at 100 µM in assay [2] (setting [10]) lay within 5 to 10 °C. Further, in assay [3] (AC50), the AC50 was 750 to 1500 nM. The compound also yielded a maximal effect (Emax) in assay [3] (Emax) of 80 to 90%. The pIC50 in assay [4] (NUGC3 cells) is 5.52 to 5.82; in assay [5] (setting [11]), 5.82 to 6.12; in assay [6] (setting [12]) it was at most 5.00.

`CNC(=O)c1ccc(OC)c(NCC#Cc2nn3c(N[C@@H]4CCN(C)C[C@@H]4F)cccc3c2SC(F)(F)F)c1` [Example 231]: in assay [1] (SPR, p53 Y220C), the pKd was above 8.00. Moreover, the ΔTm at 10 µM in assay [2] (setting [10]) was at least 10 °C. For the same compound, the ΔTm at 100 µM in assay [2] (setting [10]) was at least 10 °C. Besides, the AC50 in assay [3] (AC50) was below 750 nM. In assay [3] (Emax), this compound gave a maximum response (Emax) of 80 to 90%. For the same compound, the pIC50 was above 6.12 in assay [4] (NUGC3 cells), above 6.12 in assay [5] (setting [11]) and 5.10 to 5.30 in assay [6] (setting [12]).

On to `COc1cc(C(N)=O)ccc1NCC#Cc1nn2c(N[C@@H]3CCN(C)C[C@@H]3F)cccc2c1SC(F)(F)F` [Example 233], for which the pKd in assay [1] (SPR, p53 Y220C) was above 8.00. Moreover, in assay [2] (setting [10]), the ΔTm at 10 µM was at least 10 °C. The AC50 in assay [3] (AC50) is below 750 nM. This compound also returned a maximal effect (Emax) in assay [3] (Emax) of 80 to 90%. Besides, the pIC50 is above 6.12 in assay [4] (NUGC3 cells), above 6.12 in assay [5] (setting [11]) and 5.00 to 5.10 in assay [6] (setting [12]).

A word on the pKd: it is the negative decadic logarithm of the Kd, by convention in mol/L. The term Emax denotes the greatest response seen or fitted, relative to the assay's reference. The AC50 is the concentration giving half of the maximal activity seen. What is called pIC50 is the IC50 on a negative log10 scale, so that one unit is a factor of ten. A high value points to a low IC50.
